Test results reported in PMC6282425 (Pharmaceutical Biology, 2018).

What was measured:
CYP1A2 = CYP1A2 (Homo sapiens, UniProt P05177); assay: CYP1A2 inhibition in human liver microsomes (phenacetin O-deethylation); format: in vitro ADME; details: 100 μM bergenin, pooled HLMs
Procedure: (§1) All incubations were performed in triplicate, and the mean values were utilized.
(§2) There was a 3 min pre-incubation period (at 37 °C) before the reaction was initiated by adding an NADPH-generating system. The reaction was terminated by adding a 100 μL acetonitrile (10% trichloroacetic acid for CYP2A6) internal standard mix, and the solution was placed on ice. The mixture was centrifuged at 12,000 rpm for 10 min, and an aliquot (50 μL) of the supernatant was transferred for HPLC analysis. The instrument used in this study were Agilent 1260 series instrument (Palo Alto, CA, USA) with DAD and FLD detector, and the quantitative assay for the corresponding metabolites was performed as previously reported (Lang et al. [2017]; Zhang et al. [2017]).

CYP3A4 [1] = target: T1, CYP3A4 (Homo sapiens, UniProt P08684); assay: CYP3A4 inhibition in human liver microsomes (testosterone 6β-hydroxylation); format: in vitro ADME
T1 sequence (P08684 whole entry): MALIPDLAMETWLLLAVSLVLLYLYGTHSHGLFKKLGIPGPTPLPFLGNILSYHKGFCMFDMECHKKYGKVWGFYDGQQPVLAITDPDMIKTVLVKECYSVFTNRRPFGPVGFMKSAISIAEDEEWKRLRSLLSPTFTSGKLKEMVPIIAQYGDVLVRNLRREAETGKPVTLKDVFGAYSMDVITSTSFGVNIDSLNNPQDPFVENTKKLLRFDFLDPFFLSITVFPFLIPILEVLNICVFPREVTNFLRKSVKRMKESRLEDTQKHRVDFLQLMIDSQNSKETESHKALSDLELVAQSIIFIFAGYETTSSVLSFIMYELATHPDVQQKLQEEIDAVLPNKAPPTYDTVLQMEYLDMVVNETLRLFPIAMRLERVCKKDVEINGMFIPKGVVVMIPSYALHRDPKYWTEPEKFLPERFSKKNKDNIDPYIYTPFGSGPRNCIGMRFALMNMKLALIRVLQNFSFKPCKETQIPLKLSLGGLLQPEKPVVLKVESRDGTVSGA
Procedure: as §1, §2
The enzyme kinetic parameters for the probe reaction were estimated from the best fit line using least-squares linear regression of the inverse substrate concentration versus the inverse velocity (Lineweaver–Burk plots), and the mean values were used to calculate Vmax and Km. […]

CYP2A6 = target: T2, CYP2A6 (Homo sapiens, UniProt P11509); assay: CYP2A6 inhibition in human liver microsomes (coumarin 7-hydroxylation); format: in vitro ADME; details: 100 μM bergenin, pooled HLMs
T2 construct: from tissue; host or cells: pooled human liver microsomes
T2 sequence (P11509 1-494): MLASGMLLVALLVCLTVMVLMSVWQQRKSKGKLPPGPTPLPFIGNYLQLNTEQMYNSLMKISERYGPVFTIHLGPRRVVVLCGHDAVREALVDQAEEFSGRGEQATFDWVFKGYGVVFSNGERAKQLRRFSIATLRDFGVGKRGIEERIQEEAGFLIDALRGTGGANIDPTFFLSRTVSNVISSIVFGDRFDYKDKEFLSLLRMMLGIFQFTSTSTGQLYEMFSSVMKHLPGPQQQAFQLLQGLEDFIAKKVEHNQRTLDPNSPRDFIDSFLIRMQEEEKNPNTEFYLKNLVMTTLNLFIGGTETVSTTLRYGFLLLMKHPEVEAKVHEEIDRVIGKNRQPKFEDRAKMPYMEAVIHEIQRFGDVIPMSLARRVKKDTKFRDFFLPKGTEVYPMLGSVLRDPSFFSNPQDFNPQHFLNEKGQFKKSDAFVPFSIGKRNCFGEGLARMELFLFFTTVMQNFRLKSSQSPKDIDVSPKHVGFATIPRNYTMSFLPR
Procedure: as §1, §2

CYP2E1 [2] = target: T3, CYP2E1 (Homo sapiens, UniProt P05181); assay: CYP2E1 inhibition in human liver microsomes (chlorzoxazone 6-hydroxylation); format: in vitro ADME
T3 construct: CYP2E1 catalyzed reactions (chlorzoxazone 6-hydroxylation) in pooled HLM; from tissue; host or cells: pooled human liver microsomes
T3 sequence (P05181 whole entry): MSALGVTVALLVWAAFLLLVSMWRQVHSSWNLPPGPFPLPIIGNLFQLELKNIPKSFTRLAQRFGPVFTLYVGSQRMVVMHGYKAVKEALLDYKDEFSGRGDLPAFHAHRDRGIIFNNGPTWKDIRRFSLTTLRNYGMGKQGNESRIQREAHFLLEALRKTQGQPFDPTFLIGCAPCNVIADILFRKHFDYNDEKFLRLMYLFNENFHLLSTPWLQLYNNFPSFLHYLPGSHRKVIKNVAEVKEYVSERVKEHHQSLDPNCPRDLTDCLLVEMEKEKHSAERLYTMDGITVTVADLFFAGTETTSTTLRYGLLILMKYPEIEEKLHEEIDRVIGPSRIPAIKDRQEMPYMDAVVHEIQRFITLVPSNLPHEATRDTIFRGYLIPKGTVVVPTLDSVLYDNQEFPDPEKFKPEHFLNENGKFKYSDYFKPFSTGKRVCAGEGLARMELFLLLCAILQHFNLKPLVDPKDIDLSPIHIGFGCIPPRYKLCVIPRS
Procedure: as §1, §2
(§3) The enzyme kinetic parameters for the probe reaction were estimated from the best fit line using least-squares linear regression of the inverse substrate concentration versus the inverse velocity (Lineweaver–Burk plots), and the mean values were used to calculate Vmax and Km. Inhibition data from the experiments that were conducted using multiple compound concentrations were represented by Dixon plots, and inhibition constant (Ki) values were calculated using non-linear regression according to the following equation: v = (VmaxS)/(Km(1 + I/Ki) + S), where I is the concentration of the compound, Ki is the inhibition constant, S is the concentration of the substrate and Km is the substrate concentration at half the maximum velocity (Vmax) of the reaction. The mechanism of the inhibition was inspected using the Lineweaver–Burk plots and the enzyme inhibition models. The data comparison was performed using the Student’s t-test and performed using IBM SPSS statistics 20 (SPSS Inc., Chicago, IL).

CYP2D6 = CYP2D6 (Homo sapiens, UniProt P10635); assay: CYP2D6 inhibition in human liver microsomes (dextromethorphan O-demethylation); format: in vitro ADME; details: 100 μM bergenin, pooled HLMs
Sequence of CYP2D6 (P10635 whole entry): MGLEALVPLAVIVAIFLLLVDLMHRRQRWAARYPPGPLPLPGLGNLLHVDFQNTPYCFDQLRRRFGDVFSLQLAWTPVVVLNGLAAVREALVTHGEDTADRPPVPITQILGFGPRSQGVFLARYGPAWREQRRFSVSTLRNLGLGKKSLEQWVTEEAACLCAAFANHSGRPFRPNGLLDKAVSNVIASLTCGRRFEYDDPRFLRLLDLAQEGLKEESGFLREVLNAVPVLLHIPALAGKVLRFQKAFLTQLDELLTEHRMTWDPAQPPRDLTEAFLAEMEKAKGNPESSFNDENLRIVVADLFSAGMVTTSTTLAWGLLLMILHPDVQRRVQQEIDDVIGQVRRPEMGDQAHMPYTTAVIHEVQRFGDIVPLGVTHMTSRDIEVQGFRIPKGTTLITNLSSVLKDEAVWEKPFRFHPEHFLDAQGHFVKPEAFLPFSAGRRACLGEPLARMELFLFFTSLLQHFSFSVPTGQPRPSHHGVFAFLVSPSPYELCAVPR
Procedure: as §1, §2

CYP2C9 [3] = target: T4, CYP2C9 (Homo sapiens, UniProt P11712); assay: CYP2C9 inhibition in human liver microsomes (diclofenac 4′-hydroxylation); format: in vitro ADME; details: pooled HLMs
T4 sequence (P11712 whole entry): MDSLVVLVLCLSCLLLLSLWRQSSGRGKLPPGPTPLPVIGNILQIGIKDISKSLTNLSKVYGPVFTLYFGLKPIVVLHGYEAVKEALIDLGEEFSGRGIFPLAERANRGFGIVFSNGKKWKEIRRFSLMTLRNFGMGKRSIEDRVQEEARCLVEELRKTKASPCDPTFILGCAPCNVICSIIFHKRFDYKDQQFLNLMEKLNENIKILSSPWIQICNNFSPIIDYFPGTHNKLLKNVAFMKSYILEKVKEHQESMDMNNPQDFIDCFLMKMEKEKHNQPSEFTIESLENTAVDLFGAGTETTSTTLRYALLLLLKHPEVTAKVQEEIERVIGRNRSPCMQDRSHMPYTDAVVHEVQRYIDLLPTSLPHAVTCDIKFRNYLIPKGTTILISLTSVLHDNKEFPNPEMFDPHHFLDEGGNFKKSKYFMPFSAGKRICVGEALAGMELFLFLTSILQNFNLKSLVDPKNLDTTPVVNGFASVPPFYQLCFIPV
Procedure: as §1, §2, §3

CYP2C19 = CYP2C19 (Homo sapiens, UniProt P33261); assay: CYP2C19 inhibition in human liver microsomes (S-mephenytoin 4-hydroxylation); format: in vitro ADME; details: 100 μM bergenin, pooled HLMs
Sequence of CYP2C19 (P33261 whole entry): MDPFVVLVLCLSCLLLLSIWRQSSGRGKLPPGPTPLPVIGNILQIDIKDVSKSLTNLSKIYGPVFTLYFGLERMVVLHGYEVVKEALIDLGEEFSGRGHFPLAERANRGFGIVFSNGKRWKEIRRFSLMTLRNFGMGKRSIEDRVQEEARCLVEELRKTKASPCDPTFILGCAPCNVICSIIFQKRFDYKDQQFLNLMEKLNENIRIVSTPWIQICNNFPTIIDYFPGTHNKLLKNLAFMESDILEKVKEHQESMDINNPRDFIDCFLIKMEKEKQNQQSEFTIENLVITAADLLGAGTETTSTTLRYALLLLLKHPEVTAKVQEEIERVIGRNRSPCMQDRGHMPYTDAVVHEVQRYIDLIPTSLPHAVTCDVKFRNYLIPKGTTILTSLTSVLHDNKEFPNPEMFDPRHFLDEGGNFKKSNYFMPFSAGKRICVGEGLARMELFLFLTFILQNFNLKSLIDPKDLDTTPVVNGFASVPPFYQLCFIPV
Procedure: as §1, §2

CYP2C8 = target: T5, CYP2C8 (Homo sapiens, UniProt P10632); assay: CYP2C8 inhibition in human liver microsomes (paclitaxel 6α-hydroxylation); format: in vitro ADME; details: 100 μM bergenin, pooled HLMs
T5 construct: from tissue; host or cells: pooled human liver microsomes
T5 sequence (P10632 1-490): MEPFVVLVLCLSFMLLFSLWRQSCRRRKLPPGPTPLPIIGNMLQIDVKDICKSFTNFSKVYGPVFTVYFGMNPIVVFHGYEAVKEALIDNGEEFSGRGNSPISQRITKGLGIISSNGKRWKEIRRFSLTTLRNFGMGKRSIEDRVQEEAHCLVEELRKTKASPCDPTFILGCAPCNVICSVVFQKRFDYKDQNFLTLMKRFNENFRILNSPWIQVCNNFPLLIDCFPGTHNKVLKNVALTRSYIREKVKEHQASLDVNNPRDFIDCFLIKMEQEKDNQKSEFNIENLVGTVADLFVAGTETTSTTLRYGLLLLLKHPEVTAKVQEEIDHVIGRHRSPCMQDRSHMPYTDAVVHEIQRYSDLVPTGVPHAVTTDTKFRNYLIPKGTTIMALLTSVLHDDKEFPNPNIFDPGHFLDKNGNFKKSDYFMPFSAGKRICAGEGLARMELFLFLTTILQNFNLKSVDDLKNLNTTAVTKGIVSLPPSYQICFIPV
Procedure: as §1, §2

CYP3A4 [4] = target: T1, CYP3A4; assay: Time-dependent inhibition study in HLMs, CYP3A4; format: in vitro ADME
Procedure: (§4) After incubation, an aliquot (20 μL) was transferred to another incubation tube (final volume 200 μL) containing an NADPH-generating system and probe substrates whose final concentrations were approximate to Km. Then, further incubations were performed to measure the residual activity. After being incubated for different time (30 min for CYP2E1 and CYP2C9, 10 min for CYP3A4), the reactions were terminated by adding a 100 μL acetonitrile internal standard mix and then placed on ice; the corresponding metabolites were determined by HPLC.
Figure 7. […] The initial rate constant of inactivation of CYP3A4 by each concentration (Kobs) was determined through linear regression analysis of the natural logarithm of the percentage of remaining activity versus pre-incubation time (A).

CYP2E1 [5] = target: T3, CYP2E1; assay: Time-dependent inhibition study in HLMs, CYP2E1; format: in vitro ADME; details: bergenin 20 μM, pre-incubation with HLM and NADPH for 30 min
Procedure: as §4

CYP2C9 [6] = target: T4, CYP2C9; assay: Time-dependent inhibition study in HLMs, CYP2C9; format: in vitro ADME; details: bergenin 20 μM, pre-incubation with HLM and NADPH for 30 min
Procedure: as §4

[7] = design: method as in Pan et al. [2016]; details: rats, oral dose 100 mg/kg, ref Pan et al. [2016], cited from earlier work
[8] = Lineweaver–Burk plots, pooled HLMs

Sequence of CYP1A2 (P05177 whole entry): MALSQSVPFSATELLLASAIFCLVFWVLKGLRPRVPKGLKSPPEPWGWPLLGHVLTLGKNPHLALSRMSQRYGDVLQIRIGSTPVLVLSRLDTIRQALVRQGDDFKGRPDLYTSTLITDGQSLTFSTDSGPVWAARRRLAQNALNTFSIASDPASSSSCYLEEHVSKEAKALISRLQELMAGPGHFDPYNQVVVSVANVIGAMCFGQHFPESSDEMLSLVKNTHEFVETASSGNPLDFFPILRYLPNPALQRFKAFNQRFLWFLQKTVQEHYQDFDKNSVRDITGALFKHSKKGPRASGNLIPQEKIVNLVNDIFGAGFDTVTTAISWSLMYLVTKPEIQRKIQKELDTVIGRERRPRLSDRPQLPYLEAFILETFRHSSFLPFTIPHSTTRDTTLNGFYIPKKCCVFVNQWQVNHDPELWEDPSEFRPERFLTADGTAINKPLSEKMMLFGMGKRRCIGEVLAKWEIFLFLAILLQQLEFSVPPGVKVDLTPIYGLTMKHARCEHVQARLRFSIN

SMILES: COc1c(O)cc2c(c1O)[C@@H]1O[C@H](CO)[C@@H](O)[C@H](O)[C@H]1OC2=O [bergenin, Bergenin]
- Inhibition of CYP1A2 activity (CYP1A2): did not inhibit
- Inhibition mode CYP3A4 (CYP3A4 [1]; [8]): non-competitive
- activity at 100 μM (CYP3A4 [1]; human, pooled human liver microsomes, pH 7.4, probe testosterone (6β-hydroxylation), read-out: CYP3A4 activity, % of control activity): 11%
- Inhibition of CYP2A6 activity (CYP2A6): did not inhibit
- Inhibition mode CYP2E1 (CYP2E1 [2]; [8]): competitive
- activity at 100 μM (CYP2E1 [2]; human, pooled human liver microsomes, pH 7.4, probe chlorzoxazone (6-hydroxylation), read-out: CYP2E1 activity, % of control activity): 12.2%
- IC50 (CYP2E1 [2]; pooled HLMs, chlorzoxazone 6-hydroxylation): 22.8 µM
- Ki (CYP2E1 [2]; pooled HLMs, secondary Lineweaver–Burk plot, chlorzoxazone 25–200 μM): 11.4 µM
- Inhibition of CYP2D6 activity (CYP2D6): did not inhibit
- Inhibition mode CYP2C9 (CYP2C9 [3]; Lineweaver–Burk plots): competitive
- IC50 (CYP2C9 [3]; diclofenac 4′-hydroxylation): 15.1 µM
- Ki (CYP2C9 [3]; secondary Lineweaver–Burk plot, diclofenac 2–20 μM): 8.89 µM
- Inhibition of CYP2C19 activity (CYP2C19): did not inhibit
- Inhibition of CYP2C8 activity (CYP2C8): did not inhibit
- Time-dependent inhibition, activity of CYP3A4 (CYP3A4 [4]; bergenin 20 μM, pre-incubation with HLM and NADPH for 30 min): decreased with the incubation time
- CYP3A4 inactivated each minute (CYP3A4 [4]; saturating concentration of bergenin incubated with HLM, implied by Kinact): approximately 2.5%
- Time-dependent inhibition, activity of CYP2E1 (CYP2E1 [5]): not affected
- Time-dependent inhibition, activity of CYP2C9 (CYP2C9 [6]): not affected
- Plasma Cmax [7]: less than 300 ng/mL
- Cmax ([7]; read-out: Plasma Cmax): < 900 nM
